In paper PMC8920379, “The discovery of berberine erythrocyte-hemoglobin self-assembly delivery system: a neglected carrier underlying its pharmacokinetics” (Drug Delivery, 2022):
Read-outs that look alike come from different tables or passages of the source.

Assays:
bovine hemoglobin (BHB) = target: T1, bovine hemoglobin (BHB) (Bos taurus, UniProt P01966+P02070); test: Fluorescence quenching of BHB by BBR (Stern-Volmer) and thermodynamic parameters; assay type: binding; details: for Ksv (Stern-Volmer quenching constant) / kq (quenching rate constant): BHB 2 × 10^−6 mol/L, pH 7.4; for ΔG° / ΔH° / ΔS°: BBR–BHB system
T1 construct: purchased Sigma Aldrich
Procedure: Firstly, 1.0 mL of BHB (2.0 × 10^−6 mol/L) was mixed with 1.0 mL of 0.05 mol/L Tris-HCl buffer (pH = 7.4). And then BHB was added with different amounts of 0.25 × 10^−3 mol/L stock solution of BBR with an increment of 0.25 × 10^−5 mol/L until 1.75 × 10^−5 mol/L. […] (excitation at 280 nm and emission wavelengths ranging from 295 to 400 nm). The synchronous fluorescence spectra were measured through simultaneous scanning of the excitation (λex = 240 nm) and emission monochromators while maintaining a constant wavelength interval between them (Δλ, 15 nm and 60 nm).
In addition, CD spectra were collected from 200 to 260 nm with three scans averaged for each CD spectrum. The molar ratio (1:1) of BHB: BBR was used for the measurement. Briefly, BHB and BBR were dissolved in Tris-HCl (pH 7.4), and the solutions were freeze-dried into powder. Raman spectra were measured from 2600 to 400 cm^−1 using the Nd-YAG laser (1064 nm). Due to the existence of inner filter effects, the fluorescence parameter was corrected using the equation: F=F0×10^(AEX+AEM/2) where F and F0 are the fluorescence intensity corrected and observed, respectively; AEX and AEM are the sums of the absorbance of samples at excitation and emission wavelengths (Chen et al., [2021]).
Fluorescence quenching could be used to explore the interaction between drugs and proteins, and further elucidate the interaction between small drug molecules and biological macromolecules at the molecular level. Due to the quenching mechanisms were usually classified as static and dynamic quenching, the Stern-Volmer equation was utilized to calculate the fluorescence quenching data (Wang et al., [2007]): F0/F=1+Ksv[Q]=1+kqτ0[Q] where F0 and F are the fluorescence intensities at the absence or presence of BBR after correction by Equation, respectively. Ksv is the Stern-Volmer quenching constant, while [Q] is the concentration of the quencher. In addition, kq is the quenching rate constant of the binding system, and τ0 is the lifetime of fluorescence at the absence of quencher ([…]) (Sousa et al., [2008]).
In our earlier research, we have explored the association constants and the number of binding sites, and we have learned that in a static quenching system when a small molecule combines with a set of sites on a macromolecule, some constant can be calculated from the following equation: lg(F0−F/F)=lgKa+nlg[Q] where F0 and F are the fluorescence intensities in the absence and presence of BBR after correction by Equation in Spectrum procedure, Ka and n mean the association constants and the number of the sites per BHB molecule. The interrelated results were shown in our previous work (Chen et al., [2021]).
The thermodynamic parameters were analyzed using the following equations: ln((Ka)2/(Ka)1)=(1/T1−1/T2)(ΔH°/R) ΔG°=ΔH°−TΔS°=−RTlnKa where (Ka)1, and (Ka)2 are the binding constants at T1 and T2 and, R is the universal gas constant. If ΔH° < 0 and ΔS° < 0, van der Waals’ interactions and hydrogen bonds are dominant the binding reaction. If ΔH° > 0 and ΔS° > 0, hydrophobic interactions play a major role in the binding reaction. When ΔH° < 0 and ΔS° > 0, the electrostatic forces are more important than other forces (Ross and Subramanian, [1981]). […] The large positive entropy is the marker of the disruption and release of protein-bound condensed ions and water molecules (Basu & Suresh Kumar, [2015]).

[1] = Bioavailability study of BBR via intravenous and oral administration (free drug in plasma, HPLC); assay type: in vivo, SD rats; details: rat plasma; for AUC(0-t): n = 8, mean ± SEM
Procedure: Sixteen SD rats were randomly divided into two groups (n = 8) and received a single intragastrical administration (i.g.) of BBR at the dose of 400 mg/kg and intravenous injection (i.v.) at 2.5 mg/kg dose, respectively. Blood samples (0.5 mL) were obtained from the retroorbital sinus at 0.083, 0.167, 0.25, 0.5, 1, 2, 4, 8 and 24 h after administration for i.v. group and at 0.083, 0.167, 0.25, 0.5, 1, 2, 4, 8 and 24 h for i.g. groups. The plasma samples were processed with a protein precipitation method using acetonitrile and the concentration of free drug was analyzed by HPLC (Li et al., [2016]).

[2] = SD, intravenous administration 2.5 mg/kg, n = 8
[3] = SD, oral administration 400 mg/kg, n = 8

T1 sequence (P01966 2-142 limits assumed): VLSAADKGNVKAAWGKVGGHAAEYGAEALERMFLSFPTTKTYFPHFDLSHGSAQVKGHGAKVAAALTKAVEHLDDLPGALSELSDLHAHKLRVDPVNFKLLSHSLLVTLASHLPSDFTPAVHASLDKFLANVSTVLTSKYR
T1 sequence (P02070 whole entry): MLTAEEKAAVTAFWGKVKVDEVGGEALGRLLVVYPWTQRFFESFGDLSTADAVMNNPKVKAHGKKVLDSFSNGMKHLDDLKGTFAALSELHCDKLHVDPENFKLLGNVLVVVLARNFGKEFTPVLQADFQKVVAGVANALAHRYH

With COc1ccc2cc3[n+](cc2c1OC)CCc1cc2c(cc1-3)OCO2 [BBR, Berberine] as the compound, how does the “Ksv (Stern-Volmer quenching constant)” value (bovine hemoglobin (BHB); 293 K) read?
The value was 41272 L/mol.

What about the “kq (quenching rate constant)” value (bovine hemoglobin (BHB); 293 K) of the same compound?
Its value is 4.1272e+12 M⁻¹ s⁻¹.

And the “Ksv (Stern-Volmer quenching constant)” value (bovine hemoglobin (BHB); 298 K)?
The value was 38445 L/mol.

What about the “kq (quenching rate constant)” value (bovine hemoglobin (BHB); 298 K) of the same compound?
Its value is 3.8445e+12 M⁻¹ s⁻¹.

And the “Ksv (Stern-Volmer quenching constant)” value (bovine hemoglobin (BHB); 310 K)?
The value was 30957 L/mol.

What about the “kq (quenching rate constant)” value (bovine hemoglobin (BHB); 310 K) of the same compound?
The value was 3.0957e+12 M⁻¹ s⁻¹.

What about the “ΔG°” value (bovine hemoglobin (BHB); 293 K) of the same compound?
Its value is -6.1902 kcal/mol.

What about the “ΔH°” value (bovine hemoglobin (BHB); 293 K) of the same compound?
The value was -1.1352 kcal/mol.

What about the “ΔS°” value (bovine hemoglobin (BHB); 293 K) of the same compound?
Its value is 72.113 J mol^−1K^−1.

And the “ΔG°” value (bovine hemoglobin (BHB); 298 K)?
The value was -6.2765 kcal/mol.

What about the “ΔH°” value (bovine hemoglobin (BHB); 298 K) of the same compound?
Its value is -1.1352 kcal/mol.

What about the “ΔS°” value (bovine hemoglobin (BHB); 298 K) of the same compound?
Its value is 72.114 J mol^−1K^−1.

And the “ΔG°” value (bovine hemoglobin (BHB); 310 K)?
The value was -6.4493 kcal/mol.

And the “ΔH°” value (bovine hemoglobin (BHB); 310 K)?
The value was -1.1352 kcal/mol.

What about the “ΔS°” value (bovine hemoglobin (BHB); 310 K) of the same compound?
Its value is 71.724 J mol^−1K^−1.

And the “quenching mechanism of BBR-BHB complex formation” value (bovine hemoglobin (BHB); Ksv and Kq decreased with increasing temperature)?
The value was “static quenching process”.

What about the “major force in the binding reaction” value (bovine hemoglobin (BHB); from negative ΔH° and positive ΔS°) of the same compound?
Its value is “electrostatic interaction”.

And the AUC(0-inf) [1, 2]?
Its AUC(0-inf) is 7440 ± 548 ng·h/mL.

And the MRT [1, 2]?
The MRT was 5.6 ± 0.561 h.

What about the AUC(0-t) ([1]; SD, intravenous administration 2.5 mg/kg) of the same compound?
Its AUC(0-t) is 6420 ± 685 ng·h/mL.

What about the Cmax ([1]; SD, intravenous administration 2.5 mg/kg, n = 8, read-out: Cmax/C0 (C0)) of the same compound?
Its Cmax is 2830 ± 132 ng/mL.

What about the AUC(0-inf) [1, 3] of the same compound?
Its AUC(0-inf) is 685 ± 93 ng·h/mL.

What about the MRT [1, 3] of the same compound?
The MRT was 4.53 ± 0.515 h.

And the Tmax [1, 3]?
The Tmax was 1 h.

And the AUC(0-t) ([1]; SD, oral administration 400 mg/kg)?
The AUC(0-t) was 681 ± 93 ng·h/mL.

And the CL/F ([1]; SD, oral administration 400 mg/kg, n = 8, read-out: Clz/F (converted))?
The CL/F was 254 L/h/kg.

And the Cmax ([1]; SD, oral administration 400 mg/kg, n = 8, read-out: Cmax/C0 (Cmax))?
Its Cmax is 260 ± 32 ng/mL.

And the t1/2z ([1]; intravenous administration 2.5 mg/kg, n = 8, 2.5 mg/kg)?
The t1/2z was 3.885 ± 0.389 h.

What about the t1/2z ([1]; oral administration 400 mg/kg, n = 8, 400 mg/kg) of the same compound?
The t1/2z was 3.136 ± 0.357 h.
